Measured values taken from US9670242B2, “Tetracyclic anthraquinone derivatives” (Tianjin Hemay Bio-Tech Co., Ltd, priority 2012, dated 2017).

System: mice of ICR strain
Test: Assay on MTD (maximum tolerated dose) in vivo of mice
Details: for MTD: caudal vein injection, q4d×5 administration regimen; for Mortality Rate (%) / Number of Dead Animals ♂/♀: i.v., 5♂/5♀ per group; for Number of Dead Animals ♂/♀: 5 administrations
Experimental: Assay on MTD (Maxium Tolerated Dose) In Vivo of Mice
Assay on Maxium Tolerated Dose of Compound
Assay animals: mice of ICR strain with a weight of 18-22 g, purchased from Beijing Vital River Laboratories Limited, License SCXK (jing) 2007-0001.
Administration Regimen: each experimental animal was administered with corresponding dosage of tested substance once by injection of caudal vain every three days. Each dosage was initially designed as 5 times of administration. The specific time of administration depended on the conditions of the animals. It should be carefully observed the behavior conditions of the animals within 2 hours after administration. The animal's behavior was observed every 4 hours in the day of administration. The survival conditions and weight of animals were recorded every day and observed for whether abnormality occurred on the body surface thereof. The experimental animals were sacrificed on 14 day after administration and dissected for observation.
I group: (20 mg/kg) group;
II group: (25 mg/kg) group;
III group: (30 mg/kg) group;
IV group: solvent control group;
There were four groups in total. Each group consisted of five male mice and five female mice.
I group: (40 mg/kg) group;
II group: (45 mg/kg) group;
III group: (50 mg/kg) group;
IV group: (55 mg/kg) group;
V group: (60 mg/kg) group;
There were five groups in total. Each group consisted of six male mice and six female mice.
a represents that the experimental animal died immediately after the injection of drug rather than death caused by cytotoxicity.
I group: (30 mg/kg) group;
II group: (40 mg/kg) group;
IV group: (60 mg/kg) group;

COc1cccc2c1C(=O)c1c(O)c3c(c(O)c1C2=O)CC(O)(C(=O)COC(=O)CCC(=O)O)CC3OC1CC(n2cccc2)C(O)C(C)O1 (stereo not shown) [Compound A, 3′-pyrrolyldoxorubicin-14-oxo-succinic acid monoester, reference compound]
MTD: approximately 30 mg/kg | MTD (molar equivalent): ~0.0433 mmol/kg | Mortality Rate (%) (30 mg/kg, 5 administrations (total 150 mg/kg)): 10% | Number of Dead Animals ♂/♀ (30 mg/kg): 0/1 | Mortality Rate (%) (40 mg/kg, 5 administrations (total 200 mg/kg)): 50% | Number of Dead Animals ♂/♀ (40 mg/kg): 3/2 | Mortality Rate (%) (50 mg/kg, 5 administrations (total 250 mg/kg)): 100% | Number of Dead Animals ♂/♀ (50 mg/kg): 5/5 | Mortality Rate (%) (60 mg/kg, 5 administrations (total 300 mg/kg)): 100% | Number of Dead Animals ♂/♀ (60 mg/kg): 5/5
